Non-standard residues stand in square brackets, D forms with d. Arg(NO2) = N=C(NCCC[C@H](N)C(=O)O)N[N+](=O)[O-]
Legend:
[1] = Stability of the pure HPDs (dry solid) at 25° C./RH 60%; assay type: physicochemical; conditions: pure HPD, 25° C./RH 60%
[2] = Effect of concentration on the stability of the solution (purity over time)
[3] = Effect of solvent on the stability of the solution (purity at various pH values and temperature); assay type: physicochemical
[4] = Effect of pH value on the stability of the solution (purity); assay type: physicochemical
[5] = 0.01 wt %, at 5° C. in 15% ethanol
[6] = 0.1 wt %, at 5° C. in 15% ethanol
[7] = 1 wt %, at 5° C. in 15% ethanol
[8] = 3 wt %, at 5° C. in 15% ethanol
[9] = 5 wt %, at 5° C. in 15% ethanol
[10] = 7 wt %, at 5° C. in 15% ethanol
[11] = 8 wt %, at 5° C. in 15% ethanol
[12] = 10 wt %, at 5° C. in 15% ethanol
[13] = 15 wt %, at 5° C. in 15% ethanol
[14] = 20 wt %, at 5° C. in 15% ethanol
[15] = 30 wt %, at 5° C. in 15% ethanol
[16] = 50 wt %, at 5° C. in 15% ethanol
[17] = 0.01 wt %, 1 equivalent sodium acetate in 50% ethanol at 25° C.
[18] = 0.1 wt %, 1 equivalent sodium acetate in 50% ethanol at 25° C.
[19] = 1 wt %, 1 equivalent sodium acetate in 50% ethanol at 25° C.
[20] = 3 wt %, 1 equivalent sodium acetate in 50% ethanol at 25° C.
[21] = 5 wt %, 1 equivalent sodium acetate in 50% ethanol at 25° C.
[22] = 7 wt %, 1 equivalent sodium acetate in 50% ethanol at 25° C.
[23] = 8 wt %, 1 equivalent sodium acetate in 50% ethanol at 25° C.
[24] = 10 wt %, 1 equivalent sodium acetate in 50% ethanol at 25° C.
[25] = 15 wt %, 1 equivalent sodium acetate in 50% ethanol at 25° C.
[26] = 20 wt %, 1 equivalent sodium acetate in 50% ethanol at 25° C.
[27] = 30 wt %, 1 equivalent sodium acetate in 50% ethanol at 25° C.
[28] = 50 wt %, 1 equivalent sodium acetate in 50% ethanol at 25° C.

Compound: Br.CCN(CC)CCOC(=O)[C@H](C)c1ccc(CC(C)C)cc1 (racemic) [C-1-4, 2-(diethylamino)ethyl (R,S)-2-(p-isobutylphenyl)propionate•HBr salt]
- Purity ([1]; 24 month): 98.0 ± 0.5

Compound: CCN(CC)CCOC(=O)c1ccccc1OC(C)=O.Cl [2-(diethylamino)ethyl acetylsalicylate•HCl]
- Purity at day 0 [2, 5]: 99.1%
- Purity at day 3 [2, 5]: 93.1%
- Purity at day 7 [2, 5]: 88.2%
- Purity at day 14 [2, 5]: 81.4%
- Purity at day 21 [2, 5]: 74.9%
- Purity at day 28 [2, 5]: 68.3%
- Purity at day 60 [2, 5]: 47.1%
- Purity at day 90 [2, 5]: 30.1%
- Purity at day 0 [2, 6]: 99.2%
- Purity at day 3 [2, 6]: 95.8%
- Purity at day 7 [2, 6]: 93.1%
- Purity at day 14 [2, 6]: 89.5%
- Purity at day 21 [2, 6]: 86.6%
- Purity at day 28 [2, 6]: 83.7%
- Purity at day 60 [2, 6]: 71.8%
- Purity at day 90 [2, 6]: 59.9%
- Purity at day 0 [2, 7]: 99.3%
- Purity at day 3 [2, 7]: 97.6%
- Purity at day 7 [2, 7]: 96.9%
- Purity at day 14 [2, 7]: 95.2%
- Purity at day 21 [2, 7]: 93.7%
- Purity at day 28 [2, 7]: 91.5%
- Purity at day 60 [2, 7]: 82.7%
- Purity at day 90 [2, 7]: 74.1%
- Purity at day 0 [2, 8]: 99.5%
- Purity at day 14 [2, 8]: 96.4%
- Purity at day 21 [2, 8]: 94.5%
- Purity at day 28 [2, 8]: 92.7%
- Purity at day 60 [2, 8]: 86.1%
- Purity at day 90 [2, 8]: 80.2%
- Purity at day 0 [2, 9]: 99.5%
- Purity at day 3 [2, 9]: 99.3%
- Purity at day 7 [2, 9]: 99.1%
- Purity at day 60 [2, 9]: 96.7%
- Purity at day 90 [2, 9]: 96.1%
- Purity at day 0 [2, 10]: 99.6%
- Purity at day 3 [2, 10]: 99.4%
- Purity at day 7 [2, 10]: 99.3%
- Purity at day 14 [2, 10]: 99.1%
- Purity at day 90 [2, 10]: 97.2%
- Purity at day 0 [2, 11]: 99.7%
- Purity at day 3 [2, 11]: 99.5%
- Purity at day 7 [2, 11]: 99.3%
- Purity at day 14 [2, 11]: 99.3%
- Purity at day 90 [2, 11]: 97.4%
- Purity at day 0 [2, 12]: 99.6%
- Purity at day 3 [2, 12]: 99.7%
- Purity at day 7 [2, 12]: 99.4%
- Purity at day 14 [2, 12]: 99.1%
- Purity at day 90 [2, 12]: 97.2%
- Purity at day 0 [2, 13]: 99.5%
- Purity at day 3 [2, 13]: 99.5%
- Purity at day 7 [2, 13]: 99.3%
- Purity at day 14 [2, 13]: 99.2%
- Purity at day 90 [2, 13]: 97.3%
- Purity at day 0 [2, 14]: 99.5%
- Purity at day 3 [2, 14]: 99.6%
- Purity at day 7 [2, 14]: 99.3%
- Purity at day 14 [2, 14]: 99.2%
- Purity at day 90 [2, 14]: 97.3%
- Purity at day 0 [2, 15]: 99.5%
- Purity at day 3 [2, 15]: 99.5%
- Purity at day 7 [2, 15]: 99.4%
- Purity at day 14 [2, 15]: 99.4%
- Purity at day 90 [2, 15]: 97.4%
- Purity at day 0 [2, 16]: 99.7%
- Purity at day 3 [2, 16]: 99.6%
- Purity at day 7 [2, 16]: 99.5%
- Purity at day 14 [2, 16]: 99.3%
- Purity at day 21 [2, 16]: 99.2%
- Purity at day 90 [2, 16]: 97.4%
- Stability when the concentration is 0.1% or lower ([2]; at 5° C. in 15% ethanol): not stable
- Stability of the solution at a temperature higher than 40° C. and a pH lower than 3 or greater than 6 ([3]; 7% solution in water): not stable
- Effect of the solvent on the stability of the solution ([3]; 7% solution, 15% ethanol): did not affect the stability
- Effect of the solvent on the stability of the solution ([3]; 7% solution, 25% ethanol): did not affect the stability
- Effect of the solvent on the stability of the solution ([3]; 7% solution, 50% ethanol): did not affect the stability
- Effect of the amount of ethanol on the stability of the solution ([3]; 7% solution, tables 51-54 (water, 15%, 25%, 50% ethanol)): did not affect the stability

Compound: CCN(CC)CCOC(=O)[C@@H](C)c1ccc2cc(OC)ccc2c1.Cl [A-1-2, 2-(diethylamino)ethyl (S)-2-(6-methoxy-2-naphthyl) propionate•HCl salt]
- Purity ([1]; 24 month): 98.0 ± 0.1
- Purity ([1]; Day 0): 98.6 ± 0.3

Compound: CCN(CC)CCOC(=O)[C@H](C)c1ccc2cc(OC)ccc2c1.Cl [A-1-3, 2-(diethylamino)ethyl (R)-2-(6-methoxy-2-naphthyl) propionate•HCl salt]
- Purity ([1]; 18 month): 98.1 ± 0.2
- Purity ([1]; 24 month): 97.9 ± 0.2

Compound: CCN(CC)CCOC(=O)[C@@H](C)c1ccc(-c2ccccc2)c(F)c1.Cl [B-1-2, 2-(diethylamino)ethyl (S)-2-(2-fluoro-4-biphenyl)propionate•HCl salt]
- Purity ([1]; 3 month): 98.6 ± 0.1
- Purity ([1]; Day 0): 98.7 ± 0.2

Compound: CCN(CC)CCOC(=O)[C@H](C)c1ccc(-c2ccccc2)c(F)c1.Cl [B-1-3, 2-(diethylamino)ethyl (R)-2-(2-fluoro-4-biphenyl)propionate•HCl salt]
- Purity ([1]; 18 month): 98.1 ± 0.2
- Purity ([1]; 24 month): 98.0 ± 0.1

Compound: Br.CCN(CC)CCOC(=O)C(C)c1ccc(-c2ccccc2)c(F)c1 (centres unmarked) [B-1-4, 2-(diethylamino)ethyl 2-(2-fluoro-4-biphenyl)propionate•HBr salt]
- Purity ([1]; 18 month): 98.1 ± 0.1
- Purity ([1]; 24 month): 97.9 ± 0.1
- Purity ([1]; Day 0): 98.6 ± 0.2

Compound: CCN(CC)CCOC(=O)[C@@H](C)c1ccc(CC(C)C)cc1.Cl [C-1-2, 2-(diethylamino)ethyl (S)-2-(p-isobutylphenyl)propionate•HCl salt]
- Purity ([1]; 24 month): 98.0 ± 0.5

Compound: H-Ala-Pro-Gly-Pro-Arg(NO2)—OCH2CH3•HCl (H-APGP[Arg(NO2)]-OEt; also: HCl salt)
- pH at which the solution is stable ([4]; 5% solution in 25% ethanol at 25° C.): 3-6
- Time the solution can be stored at room temperature ([4]; 5% solution in 25% ethanol, pH 3-6): about 3 months
- Purity at Day 30 [2, 17]: 55.6%
- Purity at Day 90 [2, 17]: 21.3%
- Purity at Day 180 [2, 17]: 0%
- Purity at day 0 [2, 17]: 98.3%
- Purity at Day 30 [2, 18]: 65.7%
- Purity at Day 90 [2, 18]: 30.2%
- Purity at Day 180 [2, 18]: 8.6%
- Purity at day 0 [2, 18]: 98.4%
- Purity at Day 30 [2, 19]: 91.3%
- Purity at Day 90 [2, 19]: 75.9%
- Purity at Day 180 [2, 19]: 56.6%
- Purity at day 0 [2, 19]: 98.5%
- Purity at Day 30 [2, 20]: 96.8%
- Purity at Day 90 [2, 20]: 92.1%
- Purity at Day 180 [2, 20]: 85.8%
- Purity at day 0 [2, 20]: 98.8%
- Purity at Day 30 [2, 21]: 97.1%
- Purity at Day 90 [2, 21]: 94.4%
- Purity at Day 180 [2, 21]: 89.7%
- Purity at day 0 [2, 21]: 98.9%
- Purity at Day 30 [2, 22]: 97.5%
- Purity at Day 90 [2, 22]: 95.0%
- Purity at Day 180 [2, 22]: 91.3%
- Purity at day 0 [2, 22]: 98.9%
- Purity at Day 30 [2, 23]: 97.6%
- Purity at Day 90 [2, 23]: 95.1%
- Purity at Day 180 [2, 23]: 91.4%
- Purity at day 0 [2, 23]: 98.8%
- Purity at Day 30 [2, 24]: 97.6%
- Purity at Day 90 [2, 24]: 95.2%
- Purity at Day 180 [2, 24]: 91.5%
- Purity at day 0 [2, 24]: 98.9%
- Purity at Day 30 [2, 25]: 97.6%
- Purity at Day 90 [2, 25]: 95.0%
- Purity at Day 180 [2, 25]: 91.4%
- Purity at day 0 [2, 25]: 98.8%
- Purity at Day 30 [2, 26]: 97.5%
- Purity at Day 90 [2, 26]: 95.1%
- Purity at Day 180 [2, 26]: 91.5%
- Purity at day 0 [2, 26]: 98.9%
- Purity at Day 30 [2, 27]: 97.6%
- Purity at Day 90 [2, 27]: 95.1%
- Purity at Day 180 [2, 27]: 91.7%
- Purity at day 0 [2, 27]: 98.9%
- Purity at Day 30 [2, 28]: 97.5%
- Purity at Day 90 [2, 28]: 95.2%
- Purity at Day 180 [2, 28]: 91.6%
- Purity at day 0 [2, 28]: 98.8%
